Assay results: patent US7928226B2, “Salts and polymorphs of a VEGF-R inhibitor” (Agouron Pharmaceuticals Inc., priority 2005, dated 2011)
Read-outs that look alike come from different tables or passages of the source.

Legend:
[1] = Solid state stability at 40° C./75% RH (HPLC and polymorphic form); assay type: physicochemical
Method: The solid state stabilities as shown in Tables 5 and 7 were measured using the following procedure. A preliminary HPLC method was developed to investigate the stability of the salt forms of compound 1. The HPLC conditions are listed below.

[2] = Water solubility; assay type: physicochemical
[3] = system: VEGF-stimulated receptor autophosphorylation; settings: cited from earlier work
[4] = system: endothelial cell survival; settings: cited from earlier work
[5] = system: tumor angiogenesis; settings: in vivo; cited from earlier work
[6] = system: human xenograft tumors; settings: in vivo; cited from earlier work

Solid state stability, polymorphic form found, T (1 week) close ([1]; bis-HBr salt) | Solid state stability, polymorphic form found, T (1 week) open ([1]; bis-HBr salt) | Solid state stability, polymorphic form found, T (4 week) close ([1]; bis-HBr salt) | Solid state stability, polymorphic form found, T (4 week) open ([1]; bis-HBr salt) | Solid state stability, polymorphic form found, T (6 week) close ([1]; bis-HBr salt) | Solid state stability, polymorphic form found, T (6 week) open ([1]; bis-HBr salt) | Solid state stability, polymorphic form found, T (0) ([1]; bis-HBr salt) | Solid state stability, polymorphic form found, T (1 week) close ([1]; bis-maleate salt) | Solid state stability, polymorphic form found, T (4 week) close ([1]; bis-maleate salt) | Solid state stability (HPLC %) T (6 week) close ([1]; bis-maleate salt) [%] | Solid state stability, polymorphic form found, T (6 week) close ([1]; bis-maleate salt) | Solid state stability (HPLC %) T (0) ([1]; bis-maleate salt) [%] | Solid state stability, polymorphic form found, T (0) ([1]; bis-maleate salt) | Structure (SMILES) | also measured
Form 1 | Form I & II | Form I & II | Form II | Form II | Form II | Form 1 | – | – | – | – | – | – | CNC(=O)c1c(C)oc2cc(Oc3ccnc4cc(OCCN5CCOCC5)ccc34)ccc12 [Bis-HBr Form I, N,2-dimethyl-6-[7-(2-morpholinoethoxy)quinolin-4-yloxy]benzofuran-3-carboxamide] | solubility ([2]; pH 3.4, read-out: Solubility): > 30 mg/mL
Form II | Form II | Form II | Form II | Form II | Form II | Form II | – | – | – | – | – | – | CNC(=O)c1c(C)oc2cc(Oc3ccnc4cc(OCCN5CCOCC5)ccc34)ccc12 [Bis-HBr Form II, N,2-dimethyl-6-[7-(2-morpholinoethoxy)quinolin-4-yloxy]benzofuran-3-carboxamide] | Solid state stability (HPLC %) T (1 week) close ([1]; bis-HBr salt): 98.70%; Solid state stability (HPLC %) T (1 week) open ([1]; bis-HBr salt): 98.61%; Solid state stability (HPLC %) T (4 week) close ([1]; bis-HBr salt): 98.66%; Solid state stability (HPLC %) T (4 week) open ([1]; bis-HBr salt): 98.62%; Solid state stability (HPLC %) T (6 week) close ([1]; bis-HBr salt): 98.61%; Solid state stability (HPLC %) T (6 week) open ([1]; bis-HBr salt): 98.49%; Solid state stability (HPLC %) T (0) ([1]; bis-HBr salt): 98.53%; solubility ([2]; pH 3.4): >30 mg/ml (pH 3.4)
– | – | – | – | – | – | – | Form I | Form I | 99.9 | Form I | 99.9 | Form I | CNC(=O)c1c(C)oc2cc(Oc3ccnc4cc(OCCN5CCOCC5)ccc34)ccc12 [Bis-maleate Form I, N,2-dimethyl-6-[7-(2-morpholinoethoxy)quinolin-4-yloxy]benzofuran-3-carboxamide] | Solid state stability (HPLC %) T (1 week) close ([1]; bis-maleate salt): 99.9%; Solid state stability (HPLC %) T (1 week) open ([1]; bis-maleate salt): 99.9%; Solid state stability, polymorphic form found, T (1 week) open ([1]; bis-maleate salt): Form I; Solid state stability (HPLC %) T (4 week) close ([1]; bis-maleate salt): 99.9%; Solid state stability (HPLC %) T (4 week) open ([1]; bis-maleate salt): 99.9%; Solid state stability, polymorphic form found, T (4 week) open ([1]; bis-maleate salt): Form I; Solid state stability (HPLC %) T (6 week) open ([1]; bis-maleate salt): 99.8%; Solid state stability, polymorphic form found, T (6 week) open ([1]; bis-maleate salt): Form I; solubility ([2]; pH 3.6, read-out: Solubility): ≥ 150 mg/mL
– | – | – | – | – | – | – | Form III | Form III | 99.9 | Form III | 99.9 | Form III | CNC(=O)c1c(C)oc2cc(Oc3ccnc4cc(OCCN5CCOCC5)ccc34)ccc12 [Bis-maleate Form III, N,2-dimethyl-6-[7-(2-morpholinoethoxy)quinolin-4-yloxy]benzofuran-3-carboxamide] | solubility ([2]; pH 3.8, read-out: Solubility): ≥ 30 mg/mL
– | – | – | – | – | – | – | – | – | – | – | – | – | CNC(=O)c1c(C)oc2cc(Oc3ccnc4cc(OCCN5CCOCC5)ccc34)ccc12 [compound 1, N,2-dimethyl-6-[7-(2-morpholinoethoxy)quinolin-4-yloxy]benzofuran-3-carboxamide] | blocking of VEGF-stimulated receptor autophosphorylation [3]: selectively blocks; blocking of endothelial cell survival [4]: selectively blocks; inhibition of tumor angiogenesis [5]: significant inhibition; inhibition of the growth of human xenograft tumors [6]: significant inhibition
